From patent publication US11305012B2, “Binding molecules specific for HER3 and uses thereof” (MedImmune, LLC, priority 2013, dated 2022)

Tests used:
[1] = test system: human MCF-7 breast cancer xenograft; assay: Orthotopic human MCF-7 breast cancer xenograft model; format: in vivo, mouse; conditions: MCF-7 orthotopic, 10 mg/kg
Protocol: Human MCF-7 breast cancer cells were maintained at 37° C. in a 5% CO2 incubator in Optimem medium containing glutamax, 2.4/L sodium bicarbonate, Hepes and 5% fetal bovine serum. Orthotopic xenografts were established by injecting 5×10^6 cells per mouse (suspended in 50% matrigel) into the mammary fat pad on the right flank of 4 to 6-week-old athymic nu/nu mice. Estrogen pellets (0.36 mg) were placed under the skin of the left flank 1-2 days before cell injection. […] Paclitaxel was administered intravenously at 10 mg per kilogram body weight. Caliper measurements were used to calculate tumor volumes using the formula: tumor volume=π÷6(length×width×width) • for tumors grown in mice.

[2] = test system: JIMT-1 breast cancer xenografts; assay: Orthotopic human JIMT-1 breast cancer xenograft model; format: in vivo, mouse
Protocol: Orthotopic xenografts were established by injecting 5×10^6 cells per mouse (suspended in 50% matrigel) into the mammary fat pad on the right flank of 4 to 6-week-old athymic nu/nu mice. […] Treatment with antibodies were administered starting at day 8 post-implantation of JIMT-1 cells. […]

MDA-MB-361 xenografts = assay: Orthotopic human MDA-MB-361 breast cancer xenograft model; format: in vivo, mouse; conditions: trastuzumab and rhuMAb 2C4 10 mg/kg, lapatinib 100 mg/kg twice daily, 2C2-YTE 30 mg/kg
Protocol: (§1) Orthotopic xenografts were established by injecting 5×10^6 cells per mouse (suspended in 50% matrigel) into the mammary fat pad on the right flank of 4 to 6-week-old athymic nu/nu mice. Estrogen pellets (0.36 mg) were placed under the skin of the left flank 1-2 days before cell injection. […] Lapatinib was administered by oral gavaging at 100 mg per kilogram body weight. Caliper measurements were used to calculate tumor volumes using the formula: tumor volume=π÷6(length×width×width) • for tumors grown in mice.

[3] = test system: HER3, pHER3 and pAKT in SW620, SW480, Colo205, LOVO, HCT15, Caco-2; assay: HRG-stimulated HER3 signaling in CRC tumor cell lines (Western); format: cell-based, human; conditions: antibodies 10 μg/mL, gefitinib 5 μM, HRG 50 ng/mL
Protocol: In the presence of the HER3 ligand heregulin (HRG), HER3 heterodimerizes with EGFR or HER2, which leads to phosphorylation of HER3 and transmission of an oncogenic signal via phosphoinositide 3 kinase (PI3K) and protein kinase B (PKB), also known as AKT. A collection of CRC models were characterized to determine which receptor tyrosine kinase, EGFR or HER2, is the major driver of signaling through HER3. […] Briefly, cells were seeded into 24-well plates at a density of 1.5×10^5 cells per well. […] After 5-6 hours of incubation at 37° C., HRG was added at 50 ng/mL into one set of cells for 15 minutes at 37° C. All cells were then washed with cold PBS and lysed by the addition of 60 μL of 2×SDS (sodium dodecyl sulfate) sample buffer (Invitrogen). Lysates were transferred to 1.5 mL tubes and boiled for 5 minutes followed by chilling on ice for 2 minutes. Equal volumes (20 μL) of protein samples were resolved in NuPAGE Novex Bis-Tris gels (Invitrogen) before transfer to polyvinylidene fluoride (PVDF) membranes (Invitrogen). […] After washing, protein bands were detected on X-ray film by using SuperSignal West Pico Chemiluminescent Substrate (Pierce/Thermo Scientific).

BT-474 xenografts = assay: Orthotopic human BT-474 breast cancer xenograft model; format: in vivo, mouse; conditions: BT-474 orthotopic, antibodies 30 mg/kg, lapatinib 100 mg/kg
Protocol: as §1, with “1×10^7” for “5×10^6”

[4] = 10 mpk (each), day 32 post-implantation of JIMT-1 cells, vs control IgG1

Compound: CC(=O)O[C@H]1C(=O)[C@@]2(C)[C@H]([C@H](OC(=O)c3ccccc3)[C@]3(O)C[C@H](OC(=O)[C@H](O)[C@@H](NC(=O)c4ccccc4)c4ccccc4)C(C)=C1C3(C)C)[C@]1(OC(C)=O)CO[C@@H]1C[C@@H]2O [Paclitaxel, paclitaxel, reference compound]
- anti-tumor efficacy (in words) [1]: clear anti-tumor efficacy

Compound: pertuzumab [RhuMAb 2C4, reference compound]
- % TGI [2, 4]: 13.64%
- % dTGI [2, 4]: 17.42%
- anti-tumor efficacy (in words) ([2]; JIMT-1, 10 mg/kg (each)): did not result in any significant reduction
- anti-tumor efficacy (in words) (MDA-MB-361 xenografts): showed anti-tumor efficacy
- effect on HRG ligand-dependent signaling (HER3, pHER3, pAKT; in words) [3]: inhibit HRG ligand-dependent signaling

Compound: COc1cc2ncnc(Nc3ccc(F)c(Cl)c3)c2cc1OCCCN1CCOCC1 [gefitinib]
- effect on HRG ligand-dependent signaling (HER3, pHER3, pAKT; in words) [3]: no effect

Compound: CS(=O)(=O)CCNCc1ccc(-c2ccc3ncnc(Nc4ccc(OCc5cccc(F)c5)c(Cl)c4)c3c2)o1 [lapatinib, reference compound]
- anti-tumor efficacy (in words) (MDA-MB-361 xenografts): showed anti-tumor efficacy
- anti-tumor efficacy (in words) (BT-474 xenografts): tumor stasis
